# Assay results as given in patent US12239643B2, “Therapeutic agent for inflammatory diseases, autoimmune diseases, fibrotic diseases, and cancer diseases” (MEIJI SEIKA PHARMA CO., LTD., priority 2018, dated 2025).
# What was measured:
# Type in all cases: in vivo
# [1] = tested on: bleomycin-induced pulmonary fibrosis, C57BL/6J mice; test: Mouse bleomycin model; conditions: oral once a day for 14 days, day 21 after BLM administration, compared with nintedanib
# Method: Evaluation was carried out using female C57BL/6J mice (7 weeks of age). Bleomycin (BLM) at a concentration of 2 mg/kg was administered oropharyngeally under anesthesia to induce pulmonary fibrosis. Six days after BLM administration, the group was divided into experimental groups so as to achieve a uniform weight loss rate from the BLM administration day. The test compound dissolved or suspended in 0.5% w/v methylcellulose (0.5% MC) was orally administered (10 μL/g) at a concentration of 10 to 100 mg/kg once a day for 14 days from day 7 after the administration of BLM. On day 21 after BLM administration, blood was collected under anesthesia, and the lungs were fixed with a 10% neutral buffered formalin solution and treated for histological examination. To evaluate the degree of fibrosis, the concentration of serum surfactant protein D (SP-D) was measured by the ELISA method.
# [2] = tested on: substance P-induced pruritus behavior, ICR mice; test: Mouse pruritus model; conditions: oral, substance P intradermally 2 hours after administration
# Method: Evaluation was carried out using male ICR mice (5 to 7 weeks of age). A micro magnet was embedded under the skin of both hind limbs of the mice in advance, and the hair on the back of the mouse neck was shaved. On the day of the test, the test compound was dissolved or suspended in 0.5% w/v methylcellulose (0.5% MC) and orally administered. Two hours after administration of the test compound, 50 μL of 300 nM substance P dissolved in saline was intradermally administered to the back of the mouse neck. The blank was a non-pruritus-induced group orally administered with 0.5% MC instead of the test compound and intradermally administered with saline instead of substance P, and the pruritus induction control was a group orally administered with 0.5% MC instead of the test compound. The pruritus measurement system for small animals, MicroAct II, automatically measured pruritus behavior for 30 minutes immediately after intradermal administration.
# [3] = tested on: DSS-induced colitis, C57BL/6J mice; test: DSS-induced mouse colitis model; conditions: oral once a day, DSS in drinking water
# Method: Evaluation was carried out using male C57BL/6J mice (7 weeks of age). The mice were allowed to freely drink dextran sodium sulfate (DSS) dissolved in water for 5 days, and then allowed to freely drink water for 4 to 5 days. The test compound was dissolved or suspended in 0.5% w/v methylcellulose (0.5% MC) and orally administered once a day from the first day. The blank was a non-inflammation-induced group orally administered with 0.5% MC instead of the test compound and allowed to freely drink water instead of DSS, and the inflammation-induced control was a group orally administered with 0.5% MC instead of the test compound. The colitis inhibitory effect was evaluated by the disease activity index (DAI) score.
smiles,measurement,setting,value
"CC(C)(O)C(F)(F)Oc1ccc(-c2nccs2)c2oc(N3CC4CC(C3)N4)nc12 [Example 248, 1-((2-(3,6-Diazabicyclo[3.1.1]heptan-3-yl)-7-(thiazol-2-yl)benzo[d]oxazol-4-yl)oxy)-1,1-difluoro-2-methylpropan-2-ol]",pulmonary fibrosis score,[1],equal to or lower than those of nintedanib
same,serum SP-D concentration,[1],equal to or lower than those of nintedanib
same,scratching behavior (pruritus behavior for 30 minutes),[2],suppressed mouse scratching behavior at a lower concentration than apremilast
same,disease activity index (DAI) score,[3],suppressed the DAI score at a lower concentration than that of apremilast
